Test results from US20230332103A1, “Methods and Compositions for Generating Human Forebrain Neural Progenitor Cells and for Maturation Thereof to Parvalbumin+ Interneurons” (Trailhead Biosystems Inc., priority 2021, published 2023).
Entries after “also recorded” stand apart in the source; their conditions may differ.

Experiments:
[1] = system: human pluripotent stem cells; assay: HD-DoE 12-factor experiment for stage 1 recipe, gene expression by quantitative PCR after 3 days; format: cell-based; conditions: for factor contribution on expression of SIX3: model optimized for maximal expression of SIX3, 3-day treatment; for factor contribution on expression of FEZF2: model optimized for maximum expression of FEZF2
Excerpt: This example utilizes a method of High-Dimensional Design of Experiments (HD-DoE), as previously described in Bukys et al. (2020) […] 23:101346. The method employs computerized design geometries to simultaneously test multiple process inputs and offers mathematical modeling of a deep effector/response space. The method allows for finding combinatorial signaling inputs that control a complex process, such as during cell differentiation. It allows testing of multiple plausible critical process parameters, as such parameters impact output responses, such as gene expression. Because gene expression provides hallmark features of the phenotype of, for example, a human cell, the method can be applied to identify, and understand, which signaling pathways control cell fate. In the current example, the HD-DOE method was applied with the intent to find conditions for induction of […] neural progenitor-expressed genes, directly from the pluripotent stem cell state. To develop the recipe for each stage, the impact of agonists and antagonists of multiple signaling pathways (herein called effectors) on the expression of two sets of 53 pre-selected genes, after a 3-day treatment, has been tested and modeled. These effectors are small molecules or proteins that are commonly used during stepwise differentiation of stem cells to specific fates. Choice of the effectors were based on current literature on neural induction in forebrain region of developing brain and differentiation of stem cells to neural progenitors. To test the effectors, experiments with at least 8 factors were designed that can assess the response of cells to 48 or more different combinations of effectors in a range of concentrations. To analyze the models, we focused on expression of genes involved in development and patterning of the anterior neuroectoderm and forebrain including OTX2 (Hoch et al. (2015) Cell Reports 12:482-494), SIX3 (Lagutin et al. (2003) Genes & Development 17:368-379) and FEZF2 (Zhang et al. (2014) Development 141:4794-[…]). At later stages we focused on dorsoventral patterning of telencephalon and gene expressed in ventral forebrain including NKX2-1 and absence of PAX6 which is a dorsal forebrain marker (Stoykova et al. (2000) J. Neurosci. 20:8042-8050). The impact of each effector on gene expression level is defined by a parameter called factor contribution that is calculated for each effector during the modeling. To identify the recipe for stage 1 of differentiation, 96 different combinations of effectors generated using Design-of-Experiments compression through D-optimality were robotically prepared. The effector combinations were prepared in a basal media and were subsequently added to the cells, which were then allowed to differentiate. Three days later RNA extraction was performed, and gene expression was obtained using quantitative PCR analysis. […] Solutions within the tested space could then be explored to address desirability. Optimizing for maximal expression of SIX3 at 3300 and FEZF2 1355 expression values led to robust solutions. This model was derived from testing 12 effectors including AGN193109, LDN193189, CHIR99021, XAV939, IGF2, Purmorphamine, 4-oxo-RA, TTNPB, SR11237, FGF8, PD0325901 and […]. […] The model was also optimized for maximum expression of FEZF2 separately at 3576 expression value to find any additional factors that can boost expression of forebrain genes. […] To find the set of factors that have the potential to optimize all 3 genes in this experiment, a new assessment was done through dynamic profile analysis with focus on maximal expression of OTX2, FEZF2 and SIX3.

[2] = system: stage 2 neural stem cells (cells treated with stage 1 and stage 2 media); assay: HD-DoE experiment for stage 3 recipe, optimized for ASCL1; format: cell-based, human
Method: To further guide the cells to medial ganglionic eminence progenitor fate, an additional HD-DoE experiment was performed for 3 days on cells that were treated with stage 1 and stage 2 media for total of 6 days prior to start of the experiment. This experiment included 13 effectors, LDN193189, A8301, GNF5837, AZD3147, GSI-XX, Takinib, PD0325901, PD173074, BLU9931, IGF-1, MHY1485, Purmorphamine and Prostratin. In this model, we focused on maximum expression of genes expressed in neuronal progenitor cells in medial ganglionic eminence (MGE) region including ASCL1, LHX6 and DLX1 (Silberberg et al. (2016) Neuron 92:59-74). When the model was optimized for maximum expression of ASCL1 at 1700, A8301, GSI-XX, Purmorphamine and Takinib, which is an inhibitor of TAK1 pathway, had the highest factor contributions, 18.1, 14.1, 12.7 and 10.1 respectively. […]

[3] = system: stage 2 neural stem cells; assay: factor criticality analysis (dynamic profile analysis) of stage 3 recipe; format: cell-based, human; design: unit not given here; conditions: other five factors present
Method: To assess the impact of the elimination of each validated factor, dynamic profile analysis was used and compared the expression level of genes of interest in absence of each finalized factor while others are present. […] In the stage 3 recipe, each of the six finalized factors were removed while the other five factors remained present and the expression levels of ASCL1, DLX1 and LHX6 were assessed compared to the presence of all six factors. […] As expected, in the absence of IGF-1, the value of DLX1 increases to 410, however, ASCL1 and LHX6 decreased to 1390 and 220, respectively.

[4] = dynamic profile analysis, FIG. 4
[5] = dynamic profile analysis, FIG. 10

SMILES | factor contribution, important input for high expression of SIX3 ([1]; FIG. 2 legend, model optimized for maximum expression of SIX3 as printed) | impact on expression of OTX2 [1, 4] | factor contribution on expression of OTX2 ([1]; positive impact, model of maximum expression of OTX2) | factor contribution on expression of SIX3 ([1]; positive impact) | factor contribution on expression of FEZF2 ([1]; positive impact) | impact on expression of ASCL1 [2, 5] | impact on expression of DLX1 [2, 5] | impact on expression of LHX6 [2, 5] | factor contribution on expression of ASCL1 ([2]; positive, model optimized for maximum expression of ASCL1 at 1700, FIG. 9) | impact on expression of FEZF2 [1, 4] | impact on expression of SIX3 [1, 4] | expression level of DLX1 when the effector is removed ([3]; 220 with all six factors) | expression level of LHX6 when the effector is removed ([3]; 240 with all six factors) | expression level of ASCL1 when the effector is removed ([3]; 1650 with all six factors)
c1ccc2c(-c3cnn4cc(-c5ccc(N6CCNCC6)cc5)cnc34)ccnc2c1 [LDN193189] | 24.9 | positive impact | 8 | 16 | 25 | – | – | – | – | – | – | – | – | –
c1ccc2c(Oc3nc(Nc4ccc(N5CCOCC5)cc4)c4ncn(C5CCCCC5)c4n3)cccc2c1 [Purmorphamine] | – | negative effect | – | 5 | 7 | positive trends; also recorded: Positive impact | did not have a significant negative impact | positive trends; also recorded: Positive impact | 12.7 | positive impact | positive impact | stayed the same | 190 | 1200
